Consider 20 compounds from patent US20170298052A1, “SUBSTITUTED OXOPYRIDINE DERIVATIVES” (BAYER PHARMA AKTIENGESELLSCHAFT, priority 2014, published 2017).

In general, IC50 refers to the point on the concentration scale where inhibition reaches its midpoint.

The target in experiment [1] is human plasma kallikrein (Homo sapiens, UniProt P03952). The experiment in a line: Determination of the plasma kallikrein activity (fluorogenic peptide substrate, AMC cleavage). It is filed as biochemical. As to conditions: plasma kallikrein from Kordia 0.6 nM; substrate H-Pro-Phe-Arg-AMC; 30 min at 22° C.; read-out: IC50 [nM] (Table B, plasma kallikrein inhibition). How it is done: To determine the plasma kallikrein inhibition of the substances according to the invention, a biochemical test system is used which utilizes the reaction of a peptidic plasma kallikrein substrate to determine the enzymatic activity of human plasma kallikrein. Here, plasma kallikrein cleaves from the peptic plasma kallikrein substrate the C-terminal aminomethylcoumarin (AMC), the fluorescence of which is measured. The determinations are carried out in microtitre plates.
Chain of human plasma kallikrein (P03952 391-638 limits assumed): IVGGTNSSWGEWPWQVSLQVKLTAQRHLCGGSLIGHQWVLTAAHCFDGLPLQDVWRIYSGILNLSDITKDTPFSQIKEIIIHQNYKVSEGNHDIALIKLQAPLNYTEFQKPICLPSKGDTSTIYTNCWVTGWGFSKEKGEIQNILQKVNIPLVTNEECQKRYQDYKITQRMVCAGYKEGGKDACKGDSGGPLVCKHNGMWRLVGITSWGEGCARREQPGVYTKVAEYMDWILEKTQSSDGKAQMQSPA
Chain of human plasma kallikrein (P03952 20-390 partner limits assumed): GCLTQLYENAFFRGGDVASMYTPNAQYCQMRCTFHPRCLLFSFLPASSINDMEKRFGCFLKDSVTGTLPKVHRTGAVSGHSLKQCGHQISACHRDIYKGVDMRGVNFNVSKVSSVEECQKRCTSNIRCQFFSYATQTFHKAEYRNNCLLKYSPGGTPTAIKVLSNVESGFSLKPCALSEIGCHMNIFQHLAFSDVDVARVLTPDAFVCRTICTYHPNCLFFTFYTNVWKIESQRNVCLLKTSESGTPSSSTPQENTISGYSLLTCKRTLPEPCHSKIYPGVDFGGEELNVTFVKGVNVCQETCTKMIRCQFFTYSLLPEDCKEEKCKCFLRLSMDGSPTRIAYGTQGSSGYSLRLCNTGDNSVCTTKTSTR
Test substances are dissolved in dimethyl sulphoxide and serially diluted in dimethyl sulphoxide (3000 μM to 0.0078 μM; resulting final concentrations in the test: 50 μM to 0.00013 μM). 1 μl of the diluted substance solutions is placed into each of the wells of white microtitre plates from Greiner (384 wells). 20 μl of assay buffer (50 mM Tris/HCl pH 7.4; 100 mM sodium chloride solution; 5 mM of calcium chloride solution; 0.1% of bovine serum albumin) and 20 μl of plasma kallikrein from Kordia (0.6 nM in assay buffer) are then added successively. After 15 min of incubation, the enzyme reaction is started by addition of 20 μl of the substrate H-Pro-Phe-Arg-AMC dissolved in assay buffer (10 μM in assay buffer) from Bachem, the mixture is incubated at room temperature (22° C.) for 30 min and fluorescence is then measured (excitation: 360 nm, emission: 460 nm). The measured emissions of the test batches with test substance are compared to those of control batches without test substance (only dimethyl sulphoxide instead of test substance in dimethyl sulphoxide), and IC50 values are calculated from the concentration/activity relationships.

Experiment [2] addresses T1, human factor XIa (Homo sapiens, UniProt P03951).
T1 construct: purchased Kordia
The experiment is described as follows: Measurement of FXIa inhibition (fluorogenic peptide substrate, AMC cleavage). The format is biochemical. As to conditions: factor XIa from Kordia 0.45 nM; substrate Boc-Glu(OBzl)-Ala-Arg-AMC; 30 min at 22° C. On the procedure: The factor XIa inhibition of the substances according to the invention is determined using a biochemical test system which utilizes the reaction of a peptidic factor XIa substrate to determine the enzymatic activity of human factor XIa. Here, factor XIa cleaves from the peptic factor XIa substrate the C-terminal aminomethylcoumarin (AMC), the fluorescence of which is measured. The determinations are carried out in microtitre plates.
1 μl of the diluted substance solutions is placed into each of the wells of white microtitre plates from Greiner (384 wells). […] After 15 min of incubation, the enzyme reaction is started by addition of 20 μl of the factor XIa substrate Boc-Glu(OBzl)-Ala-Arg-AMC dissolved in assay buffer (10 μM in assay buffer) from Bachem, the mixture is incubated at room temperature (22° C.) for 30 min and fluorescence is then measured (excitation: 360 nm, emission: 460 nm). The measured emissions of the test batches with test substance are compared to those of control batches without test substance (only dimethyl sulphoxide instead of test substance in dimethyl sulphoxide), and IC50 values are calculated from the concentration/activity relationships.

T1 sequence (P03951 388-625 limits assumed): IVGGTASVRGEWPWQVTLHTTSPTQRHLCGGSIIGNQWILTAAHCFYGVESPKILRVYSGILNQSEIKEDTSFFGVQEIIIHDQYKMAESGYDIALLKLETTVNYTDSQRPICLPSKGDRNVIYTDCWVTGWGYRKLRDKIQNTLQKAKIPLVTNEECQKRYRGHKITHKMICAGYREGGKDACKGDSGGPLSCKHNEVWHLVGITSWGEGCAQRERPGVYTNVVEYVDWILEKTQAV
T1 sequence (P03951 19-387 partner limits assumed): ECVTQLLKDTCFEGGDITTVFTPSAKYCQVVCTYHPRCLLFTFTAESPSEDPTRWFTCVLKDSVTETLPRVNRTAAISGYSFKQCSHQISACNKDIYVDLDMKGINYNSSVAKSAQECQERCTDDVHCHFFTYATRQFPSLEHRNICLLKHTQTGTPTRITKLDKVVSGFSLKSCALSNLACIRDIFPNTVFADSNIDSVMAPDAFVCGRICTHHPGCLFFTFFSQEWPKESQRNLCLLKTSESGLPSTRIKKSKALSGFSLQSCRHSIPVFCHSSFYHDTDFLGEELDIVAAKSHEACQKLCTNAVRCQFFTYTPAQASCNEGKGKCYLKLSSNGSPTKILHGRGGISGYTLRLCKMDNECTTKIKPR

Regarding `CCOCCC(C(=O)Nc1ccc(C(N)=O)c(F)c1)n1cc(OC)c(-c2cc(Cl)ccc2C#N)cc1=O` (racemic) [Example 18, 4-({2-[4-(5-Chloro-2-cyanophenyl)-5-methoxy-2-oxopyridin-1(2H)-yl]-4-ethoxybutanoyl}amino)-2-fluorobenzamide], the concentration for half-maximal inhibition (IC50) in experiment [1] amounted to 11 nM; in experiment [2], 14 nM.

For the compound `COc1cn(C(CCOC(C)C)C(=O)Nc2ccc(C(N)=O)c(F)c2)c(=O)cc1-c1cc(Cl)ccc1C#N` (racemic) [Example 19, 4-({2-[4-(5-Chloro-2-cyanophenyl)-5-methoxy-2-oxopyridin-1(2H)-yl]-4-isopropoxybutanoyl}amino)-2-fluorobenzamide], the IC50 in experiment [1] amounted to 7.4 nM; in experiment [2], 12.5 nM.

Turning to `COc1cn(C(CCOC2CCC2)C(=O)Nc2ccc(C(N)=O)c(F)c2)c(=O)cc1-c1cc(Cl)ccc1C#N` (racemic) [Example 20, 4-({2-[4-(5-Chloro-2-cyanophenyl)-5-methoxy-2-oxopyridin-1(2H)-yl]-4-(cyclobutyloxy)-butanoyl}amino)-2-fluorobenzamide], the IC50 in experiment [1] came out at 6.1 nM; in experiment [2], 7.4 nM.

Consider `COc1cn(C(CCOC(C)(C)C)C(=O)Nc2ccc(C(N)=O)c(F)c2)c(=O)cc1-c1cc(Cl)ccc1C#N` (racemic) [Example 21, 4-({4-tert-Butoxy-2-[4-(5-chloro-2-cyanophenyl)-5-methoxy-2-oxopyridin-1(2H)-yl]butanoyl}amino)-2-fluorobenzamide], for which the IC50 in experiment [1] came out at 6.8 nM; in experiment [2], 7.4 nM.

With `COc1cn(C(CCOCC(F)F)C(=O)Nc2ccc(C(N)=O)c(F)c2)c(=O)cc1-c1cc(Cl)ccc1C#N` (racemic) [Example 22, 4-({2-[4-(5-Chloro-2-cyanophenyl)-5-methoxy-2-oxopyridin-1(2H)-yl]-4-(2,2-difluoroethoxy)-butanoyl}amino)-2-fluorobenzamide], the concentration for half-maximal inhibition (IC50) in experiment [1] worked out at 12 nM; in experiment [2], 21 nM.

In the case of `COCCC(C(=O)Nc1ccc(C(N)=O)c(F)c1)n1cc(OC)c(-c2cc(OC)ccc2C#N)cc1=O` (racemic) [Example 23, 4-({2-[4-(2-Cyano-5-methoxyphenyl)-5-methoxy-2-oxopyridin-1(2H)-yl]-4-methoxybutanoyl}amino)-2-fluorobenzamide], the half-maximal inhibitory concentration (IC50) in experiment [1] is 310 nM; in experiment [2], 170 nM.

As to `COCCC(C(=O)Nc1ccc(C(N)=O)c(F)c1)n1cc(OC)c(-c2cc(Cl)c(F)cc2C#N)cc1=O` (racemic) [Example 25, 4-({2-[4-(5-Chloro-2-cyano-4-fluorophenyl)-5-methoxy-2-oxopyridin-1(2H)-yl]-4-methoxy-butanoyl}amino)-2-fluorobenzamide], the figures for the concentration for half-maximal inhibition (IC50) in experiment [1] and in experiment [2] were 160 nM and 310 nM, respectively.

Take `CCC(C(=O)Nc1ccc(C(=O)NC)cc1)n1cc(OC)c(-c2cc(Cl)ccc2C#N)cc1=O` (racemic) [Example 26, 4-({2-[4-(5-chloro-2-cyanophenyl)-5-methoxy-2-oxopyridin-1(2H)-yl]butanoyl}amino)-N-methylbenzamide]: the IC50 in experiment [1] and in experiment [2] was 20 nM throughout.

Regarding `CCC(C(=O)Nc1ccc(C(=O)NC)c(Cl)c1)n1cc(OC)c(-c2cc(Cl)ccc2C#N)cc1=O` (racemic) [Example 27, 2-Chloro-4-({2-[4-(5-chloro-2-cyanophenyl)-5-methoxy-2-oxopyridin-1(2H)-yl]butanoyl}amino)-N-methylbenzamide], the half-maximal inhibitory concentration (IC50) in experiment [1] was found to be 71 nM; in experiment [2], 50 nM.

Turning to `CNC(=O)c1ccc(NC(=O)C(Cc2ccccn2)n2cc(OC)c(-c3cc(Cl)ccc3C#N)cc2=O)cc1F` (racemic) [Example 30, 4-({2-[4-(5-Chloro-2-cyanophenyl)-5-methoxy-2-oxopyridin-1(2H)-yl]-3-(pyridin-2-yl)propanoyl}amino)-2-fluoro-N-methylbenzamide], the IC50 in experiment [1] amounted to 8.2 nM; in experiment [2], 9.7 nM.

As to `COCCC(C(=O)Nc1ccc(C(N)=O)c(F)c1)n1cc(OC)c(-c2cc(Cl)ccc2C#N)cc1=O` (racemic) [Example 31, 4-({2-[4-(5-Chloro-2-cyanophenyl)-5-methoxy-2-oxopyridin-1(2H)-yl]-4-methoxybutanoyl}amino)-2-fluorobenzamide], in experiment [1], the IC50 was 9.7 nM.

Take `COc1cn(C(Cc2cc(C)no2)C(=O)Nc2ccc(C(N)=O)c(F)c2)c(=O)cc1-c1cc(Cl)ccc1C#N` (racemic) [Example 32, 4-({2-[4-(5-Chloro-2-cyanophenyl)-5-methoxy-2-oxopyridin-1(2H)-yl]-3-(3-methyl-1,2-oxazol-5-yl)propanoyl}amino)-2-fluorobenzamide]: the IC50 is 11 nM in experiment [1] and 13 nM in experiment [2].

Turning to `COc1cn(C(Cc2noc(C)n2)C(=O)Nc2ccc(C(N)=O)c(F)c2)c(=O)cc1-c1cc(Cl)ccc1C#N` (racemic) [Example 33, 4-({2-[4-(5-Chloro-2-cyanophenyl)-5-methoxy-2-oxopyridin-1(2H)-yl]-3-(5-methyl-1,2,4-oxadiazol-3-yl)propanoyl}amino)-2-fluorobenzamide], the values for the concentration for half-maximal inhibition (IC50) in experiment [1] and in experiment [2] were 10 nM and 15 nM, respectively.

Turning to `COc1cn(C(Cc2ccccn2)C(=O)Nc2ccc(C(N)=O)c(F)c2)c(=O)cc1-c1cc(Cl)ccc1C(F)F` (racemic) [Example 34, 4-{[2-{4-[5-Chloro-2-(difluoromethyl)phenyl]-5-methoxy-2-oxopyridin-1(2H)-yl}-3-(pyridin-2-yl)propanoyl}amino]-2-fluorobenzamide], the results for the IC50 in experiment [1] and in experiment [2] were 53 nM and 42 nM, respectively.

Take `COc1cn(C(Cc2nnc(C)o2)C(=O)Nc2ccc(C(N)=O)c(F)c2)c(=O)cc1-c1cc(Cl)ccc1C#N` (racemic) [Example 35, 4-({2-[4-(5-Chloro-2-cyanophenyl)-5-methoxy-2-oxopyridin-1(2H)-yl]-3-(5-methyl-1,3,4-oxadiazol-2-yl)propanoyl}amino)-2-fluorobenzamide]: the IC50 in experiment [1] stood at 7.3 nM; in experiment [2], 12 nM.

With `COc1cn(C(Cc2ncco2)C(=O)Nc2ccc(C(N)=O)c(F)c2)c(=O)cc1-c1cc(Cl)ccc1C#N` (racemic) [Example 36, 4-({2-[4-(5-Chloro-2-cyanophenyl)-5-methoxy-2-oxopyridin-1(2H)-yl]-3-(1,3-oxazol-2-yl)propanoyl}amino)-2-fluorobenzamide], the half-inhibitory concentration (IC50) was determined as 11 nM in experiment [1] and 13 nM in experiment [2].

`COc1cn(C(Cc2cc(C)on2)C(=O)Nc2ccc(C(N)=O)c(F)c2)c(=O)cc1-c1cc(Cl)ccc1C#N` (racemic) [Example 37, 4-({2-[4-(5-Chloro-2-cyanophenyl)-5-methoxy-2-oxopyridin-1(2H)-yl]-3-(5-methyl-1,2-oxazol-3-yl)propanoyl}amino)-2-fluorobenzamide]: the IC50 in experiment [1] was 6.2 nM; in experiment [2], 12 nM.

As for `COc1cn(C(Cc2ccn(C)n2)C(=O)Nc2ccc(C(N)=O)c(F)c2)c(=O)cc1-c1cc(Cl)ccc1C#N` (racemic) [Example 38, 4-({2-[4-(5-Chloro-2-cyanophenyl)-5-methoxy-2-oxopyridin-1(2H)-yl]-3-(1-methyl-1H-pyrazol-3-yl)propanoyl}amino)-2-fluorobenzamide], the IC50 in experiment [1] worked out at 3.6 nM; in experiment [2] it was 6.2 nM.

With `COc1cn(C(Cc2nnc(C3CC3)o2)C(=O)Nc2ccc(C(N)=O)c(F)c2)c(=O)cc1-c1cc(Cl)ccc1C#N` (racemic) [Example 39, 4-({2-[4-(5-Chloro-2-cyanophenyl)-5-methoxy-2-oxopyridin-1(2H)-yl]-3-(5-cyclopropyl-1,3,4-oxadiazol-2-yl)propanoyl}amino)-2-fluorobenzamide], the IC50 in experiment [1] was found to be 38 nM; in experiment [2] it was 70 nM.

For the compound `COc1cn(C(Cc2cnco2)C(=O)Nc2cc(F)c(C(N)=O)c(F)c2)c(=O)cc1-c1cc(Cl)ccc1C#N` (racemic) [Example 40, 4-({2-[4-(5-Chloro-2-cyanophenyl)-5-methoxy-2-oxopyridin-1(2H)-yl]-3-(1,3-oxazol-5-yl)propanoyl}amino)-2,6-difluorobenzamide], the values for the half-maximal inhibitory concentration (IC50) in experiment [1] and in experiment [2] were 27 nM and 34 nM, respectively.
